Data reported in patent US7307063B2, “Melanocortin metallopeptides for treatment of sexual dysfunction” (Palatin Technologies, Inc., priority 2001, dated 2007).
Non-standard residues stand in square brackets, D forms with d. No end group written: not given here. *: point of attachment. Acetyl(2-naphthyl) = O=C(Cc1ccc2ccccc2c1)*; dDip = N[C@@H](C(=O)O)C(c1ccccc1)c1ccccc1; 2Nal = N[C@@H](Cc1ccc2ccccc2c1)C(=O)O; Hydrocinnamoyl = O=C(CCc1ccccc1)*; Nle = CCCC[C@H](N)C(=O)O; Ac5c = NC1(C(=O)O)CCCC1

How the values were obtained:
[1] = target: T1, MC1-R (Mus musculus, UniProt Q01727); assay: Competitive binding assay: inhibition of 125I-NDP-α-MSH binding to membranes from B16-F10 mouse melanoma cells; conditions: Table 6, mean of triplicate
T1 construct: MC1-R membranes were isolated from B16—F10 mouse melanoma cells; endogenous in cells; host or cells: B16-F10 mouse melanoma cells
Outline: (§1)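 Test metallopeptides, complexed to rhenium, compete with 125I-NDP-α-MSH for receptor sites on mouse B16-F10 or human-receptor HEK-293 membranes. Specific binding is the cpm difference without and with 1 μM α-MSH, and values are percent inhibition.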

[2] = target: T2, MC4-R (Homo sapiens, UniProt P32245); assay: Competitive binding assay: inhibition of 125I-NDP-α-MSH binding to HEK-293 membranes with cloned human receptor subtype 4; conditions: Table 6, mean of triplicate
T2 construct: expressed in transfected cells; host or cells: HEK-293
Outline: as §1

[3] = target: T3, hMC5-R (Homo sapiens, UniProt P33032); assay: Competitive binding assay: inhibition of 125I-NDP-α-MSH binding to HEK-293 membranes with cloned human receptor subtype 5; conditions: Table 6; 1 μM; mean of triplicate
T3 construct: expressed in transfected cells; host or cells: HEK-293
Protocol: Rhenium-complexed metallopeptides of the formulas given in Table 1 were prepared, with the metallopeptides complexed with rhenium using the rhenium transfer agent ReOCl3(PPh3)2 in the presence of 1,8-Diazabicyclo[5,4,0] undec-7-ene as a base, as disclosed in International Application PCT/US00/16396, filed Jun. 14, 2000, Melanocortin Metallopeptide Constructs, Combinatorial Libraries and Applications, incorporated by reference herein. Affinities of compounds were measured using membranes from HEK-293 cells containing cloned human melanocortin receptor subtypes 3, 4 and 5. MC1-R membranes were isolated from B16—F10 mouse melanoma cells. The assay tube also contained a chosen concentration of the test peptide of this invention, complexed to a rhenium metal ion as indicated, for determining its efficacy in inhibiting the binding of ^125I-NDP-α-MSH to its receptor. Non-specific binding was measured by complete inhibition of binding of ^125I-NDP-α-MSH in the assay with the presence of 1 μM α-MSH. 100% specific binding was defined as the difference in radioactivity (cpm) bound to cell membranes in the absence and presence of 1 μM α-MSH. The cpm obtained in presence of test compounds were normalized with respect to 100% specific binding to determine the percent inhibition of ^125I-NDP-α-MSH binding.
Peptide sequences set forth in Table 6 were prepared using conventional synthetic means. The resulting sequences were rhenium-complexed to form metallopeptides, with the metallopeptides complexed with rhenium using the rhenium transfer agent ReOCl3(PPh3)2 in the presence of 1,8-Diazabicyclo[5,4,0] undec-7-ene as a base. Percent inhibition was determined as in Example 1 using the Re-complexed metallopeptides, using the same methods as described therein. All measures are means of triplicate determinations.

[4] = target: T4, hMC2-R (Homo sapiens, UniProt P41968); assay: Competitive binding assay of additional compounds, Table 6 hMC2-R; conditions: 1 μM, mean of triplicate
T4 construct: expressed in transfected cells; host or cells: HEK-293
T4 sequence (P41968 whole entry): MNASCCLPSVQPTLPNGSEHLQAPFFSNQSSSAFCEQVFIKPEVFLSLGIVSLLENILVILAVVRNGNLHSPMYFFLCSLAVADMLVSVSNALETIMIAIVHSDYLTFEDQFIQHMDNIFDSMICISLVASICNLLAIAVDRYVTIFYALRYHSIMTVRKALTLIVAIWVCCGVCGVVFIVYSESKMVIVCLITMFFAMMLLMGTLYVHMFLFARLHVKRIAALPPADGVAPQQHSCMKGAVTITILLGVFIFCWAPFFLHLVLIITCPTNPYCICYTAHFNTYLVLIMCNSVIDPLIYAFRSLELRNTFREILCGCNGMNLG

T2 sequence (P32245 whole entry): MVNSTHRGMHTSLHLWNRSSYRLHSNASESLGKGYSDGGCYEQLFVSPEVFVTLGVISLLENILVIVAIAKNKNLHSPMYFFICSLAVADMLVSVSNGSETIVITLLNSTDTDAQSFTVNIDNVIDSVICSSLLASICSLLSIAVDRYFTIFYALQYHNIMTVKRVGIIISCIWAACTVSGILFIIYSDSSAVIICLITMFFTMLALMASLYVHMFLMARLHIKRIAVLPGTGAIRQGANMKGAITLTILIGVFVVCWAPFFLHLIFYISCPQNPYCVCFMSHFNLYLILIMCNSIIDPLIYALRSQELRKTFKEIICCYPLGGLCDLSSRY
T3 sequence (P33032 whole entry): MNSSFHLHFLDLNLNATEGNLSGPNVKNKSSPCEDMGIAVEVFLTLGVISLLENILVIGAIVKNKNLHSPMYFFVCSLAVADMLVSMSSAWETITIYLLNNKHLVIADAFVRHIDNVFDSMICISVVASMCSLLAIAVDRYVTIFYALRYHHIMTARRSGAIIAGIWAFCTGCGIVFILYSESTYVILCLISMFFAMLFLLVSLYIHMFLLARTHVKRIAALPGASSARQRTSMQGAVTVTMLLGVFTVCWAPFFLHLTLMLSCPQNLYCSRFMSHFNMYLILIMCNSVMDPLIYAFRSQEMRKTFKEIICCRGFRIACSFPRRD
T1 sequence (Q01727 whole entry): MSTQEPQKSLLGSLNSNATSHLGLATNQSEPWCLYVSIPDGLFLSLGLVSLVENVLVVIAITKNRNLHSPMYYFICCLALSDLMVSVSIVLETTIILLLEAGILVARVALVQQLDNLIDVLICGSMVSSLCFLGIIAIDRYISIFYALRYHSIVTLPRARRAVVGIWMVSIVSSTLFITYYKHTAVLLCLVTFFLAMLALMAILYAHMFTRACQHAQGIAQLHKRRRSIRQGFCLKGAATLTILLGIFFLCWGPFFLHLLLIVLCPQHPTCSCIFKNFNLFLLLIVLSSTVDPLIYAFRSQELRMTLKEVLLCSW

Substance | % Inhibition of Binding MC1-R ([1]; 1 μM) [%] | % Inhibition of Binding hMC4-R ([2]; 1 μM) [%] | % Inhibition of Binding hMC5-R [3] [%] | % Inhibition of Binding hMC2-R [4] [%] | % Inhibition of Binding MC1-R ([1]; 0.1 μM) [%] | % Inhibition of Binding hMC4-R ([2]; 0.1 μM) [%] | % Inhibition of Binding hMC2-R ([4]; listed as NH2(CH2)6CO-Ser(Bzl)-D-Phe(4′-Cl)-Arg-Trp-Cys-NH2, 1 µM) [%]
Amb-D-Phe-Arg-Cys-Trp-NH2 | 39 | 0 | 1 | 0 | – | – | –
Ac-Nle-Ala-His-D-Phe-Arg-D-Nal 1′-Cys-NH2 | 93 | 47 | 5 | 3 | – | – | –
1-amino-1-cyclopentane carboxyl-D-Phe-Arg-Trp-Cys-NH2 ([Ac5c][dF]RWC-NH2; N-terminus assumed; SMILES N=C(N)NCCC[C@H](NC(=O)[C@@H](Cc1ccccc1)NC(=O)C1(N)CCCC1)C(=O)N[C@@H](Cc1c[nH]c2ccccc12)C(=O)N[C@@H](CS)C(N)=O) | 23 | 0 | 14 | 7 | – | – | –
3′-Phenylpropionyl-His-D-Phe-Arg-Cys-Trp-NH2 (Hydrocinnamoyl-H[dF]RCW-NH2; not fully specified; printed as 3′-Phenylpropionyl-His-D-Phe-Arg-Cys-Trp-NH2) | 75 | 16 | 50 | 2 | – | – | –
Ac-Nle-Ala-His-D-Phe-Arg-Nal 2′-Cys-NH2 | 99 | 89 | 83 | 40 | – | – | –
Ac-[Nle]H[dF]RCW-NH2 | 77 | 2 | 28 | 0 | – | – | –
Ac-Nle-Ala-Ala-D-Phe-Arg-Cys-Trp-NH2 (Ac-[Nle]AA[dF]RCW-NH2; not fully specified; printed as Ac-Nle-Ala-Ala-D-Phe-Arg-Cys-Trp-NH2) | 34 | 12 | 20 | 9 | – | – | –
[dDip][dF]RWC-NH2 | 23 | 34 | 8 | 0 | – | – | –
Nal 2′-D-Phe-Arg-Trp-Cys-NH2 ([2Nal][dF]RWC-NH2; also: metal complex) | 8 | 20 | 62 | 0 | – | – | –
NH2-(CH2)6-CO-Ser(Bzl)-D-Phe(4′-Cl)-Arg-Trp-Cys-NH2 | 74 | 94 | 100 | 90 | 28 | 68 | 87
Ac-Nle-Ala-His-D-Phe-Arg-Nal 1′-Cys-NH2 | 95 | 65 | 82 | 22 | – | – | –
Naphthlyl-2-acetyl-D-Phe-Arg-Cys-Trp-NH2 ({Acetyl(2-naphthyl)}-[dF]RCW-NH2; also: metal complex) | 7 | 0 | 56 | 0 | – | – | –
